{"source": "patent US20240317721A1", "about": "“PYRAZOLYL DERIVATIVES AS INHIBITORS OF THE KRAS MUTANT PROTEIN” (NOVARTIS AG, priority 2021, published 2024)", "data": [{"biological_target": "KRasG12C (M1-K169, biotinylated on the N-terminus) (Homo sapiens (Human), UniProt P01116, G12C)", "assay": "Covalent competition assay: scintillation proximity assay (SPA) quantifying covalent modification of KRASG12C", "assay_type": "binding", "details": "competition with radiolabeled covalent probe (Compound B/Compound A), 2 hours incubation, 10 nM KRasG12C", "in_short": "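Test compounds compete with a radiolabeled covalent probe for modification of N-terminally biotinylated KRasG12C(M1-K169):GDP, final 10 nM protein, 25 nM radio-ligand, 475 nM unlabelled ligand, 2 h with agitation in 20 mM Tris-HCl pH 7.5, 150 mM NaCl, 0.1 mM MgCl2, 0.01% Tween-20.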", "units": {"IC50": "µM"}, "values": [{"smiles": "C=CC(=O)N1CC2(CC(n3nc(N4CC[C@@H](CN5CCN6C(=O)N(C)CC6C5)CC4(C)C)c(-c4c(Cl)c(Cl)cc5[nH]ncc45)c3C)C2)C1", "note": "(single isomer, unassigned) [Example 264b]", "IC50": 0.033}, {"smiles": "C=CC(=O)N1CC2(CC(n3nc(N4CC[C@@H](CN5CCOC6CS(=O)(=O)CC65)CC4(C)C)c(-c4c(Cl)c(Cl)cc5[nH]ncc45)c3C)C2)C1", "note": "(single isomer, unassigned) [Example 265a, 1-(6-(4-(5,6-dichloro-1H-indazol-4-yl)-3-((R)-4-(((4aR*,7aS*)-6,6-dioxidohexahydro-4H-thieno[3,4-b][1,4]oxazin-4-yl)methyl)-2,2-dimethylpiperidin-1-yl)-5-methyl-1H-pyrazol-1-yl)-2-azaspiro[3.3]heptan-2-yl)prop-2-en-1-one]", "IC50": 2.9}, {"smiles": "C=CC(=O)N1CC2(CC(n3nc(N4CC[C@@H](CN5CCOC6CS(=O)(=O)CC65)CC4(C)C)c(-c4c(Cl)c(Cl)cc5[nH]ncc45)c3C)C2)C1", "note": "(single isomer, unassigned) [Example 265b, 1-(6-(4-(5,6-dichloro-1H-indazol-4-yl)-3-((R)-4-(((4aR*,7aS*)-6,6-dioxidohexahydro-4H-thieno[3,4-b][1,4]oxazin-4-yl)methyl)-2,2-dimethylpiperidin-1-yl)-5-methyl-1H-pyrazol-1-yl)-2-azaspiro[3.3]heptan-2-yl)prop-2-en-1-one]", "IC50": 0.009}, {"smiles": "C=CC(=O)N1CC2(CC(n3nc(N4CC[C@@H](CN5CCOC6CS(=O)(=O)CC65)CC4(C)C)c(-c4c(Cl)c(Cl)cc5[nH]ncc45)c3C)C2)C1", "note": "(single isomer, unassigned) [Example 266a, 1-(6-(4-(5,6-dichloro-1H-indazol-4-yl)-3-((R)-4-(((4aR*,7aS*)-6,6-dioxidohexahydro-4H-thieno[3,4-b][1,4]oxazin-4-yl)methyl)-2,2-dimethylpiperidin-1-yl)-5-methyl-1H-pyrazol-1-yl)-2-azaspiro[3.3]heptan-2-yl)prop-2-en-1-one]", "IC50": 3.1}, {"smiles": "C=CC(=O)N1CC2(CC(n3nc(N4CC[C@@H](CN5CCOC6CS(=O)(=O)CC65)CC4(C)C)c(-c4c(Cl)c(Cl)cc5[nH]ncc45)c3C)C2)C1", "note": "(single isomer, unassigned) [Example 266b, 1-(6-(4-(5,6-dichloro-1H-indazol-4-yl)-3-((R)-4-(((4aR*,7aS*)-6,6-dioxidohexahydro-4H-thieno[3,4-b][1,4]oxazin-4-yl)methyl)-2,2-dimethylpiperidin-1-yl)-5-methyl-1H-pyrazol-1-yl)-2-azaspiro[3.3]heptan-2-yl)prop-2-en-1-one]", "IC50": 0.007}, {"smiles": "C=CC(=O)N1CC2(CC(n3nc(N4CC[C@@H](CN5CC6(CCN(C7COC7)C6)C5)CC4(C)C)c(-c4c(Cl)c(Cl)cc5[nH]ncc45)c3C)C2)C1", "note": "(single isomer, unassigned) [Example 267a]", "IC50": 0.72}, {"smiles": "C=CC(=O)N1CC2(CC(n3nc(N4CC[C@@H](CN5CC6(CCN(C7COC7)C6)C5)CC4(C)C)c(-c4c(Cl)c(Cl)cc5[nH]ncc45)c3C)C2)C1", "note": "(single isomer, unassigned) [Example 267b]", "IC50": 0.007}, {"smiles": "C=CC(=O)N1CC2(CC(n3nc(N4CC[C@@H](CN5CC6(CCN(C(C)=O)C6)C5)CC4(C)C)c(-c4c(Cl)c(Cl)cc5[nH]ncc45)c3C)C2)C1", "note": "(single isomer, unassigned) [Example 268a]", "IC50": 0.789}, {"smiles": "C=CC(=O)N1CC2(CC(n3nc(N4CC[C@@H](CN5CC6(CCN(C(C)=O)C6)C5)CC4(C)C)c(-c4c(Cl)c(Cl)cc5[nH]ncc45)c3C)C2)C1", "note": "(single isomer, unassigned) [Example 268b]", "IC50": 0.007}, {"smiles": "C=CC(=O)N1CC2(CC(n3nc(N4CC[C@@H](CN5CCP(C)(=O)CC5)CC4(C)C)c(-c4c(Cl)c(Cl)cc5[nH]ncc45)c3C)C2)C1", "note": "(single isomer, unassigned) [Example 269a]", "IC50": 4.3}, {"smiles": "C=CC(=O)N1CC2(CC(n3nc(N4CC[C@@H](CN5CCP(C)(=O)CC5)CC4(C)C)c(-c4c(Cl)c(Cl)cc5[nH]ncc45)c3C)C2)C1", "note": "(single isomer, unassigned) [Example 269b]", "IC50": 0.006}, {"smiles": "C=CC(=O)N1CC2(CC(n3nc(N4CC[C@@H](CN5CCN(C)[C@H](CO)C5)CC4(C)C)c(-c4c(Cl)c(Cl)cc5[nH]ncc45)c3C)C2)C1", "note": "(single isomer, unassigned) [Example 270a]", "IC50": 2.4}, {"smiles": "C=CC(=O)N1CC2(CC(n3nc(N4CC[C@@H](CN5CCN(C)[C@H](CO)C5)CC4(C)C)c(-c4c(Cl)c(Cl)cc5[nH]ncc45)c3C)C2)C1", "note": "(single isomer, unassigned) [Example 270b]", "IC50": 0.005}, {"smiles": "C=CC(=O)N1CC2(CC(n3nc(N4CC[C@@H](CN5CCO[C@@H](C(N)=O)C5)CC4(C)C)c(-c4c(Cl)c(Cl)cc5[nH]ncc45)c3C)C2)C1", "note": "(single isomer, unassigned) [Example 271a]", "IC50": "> 5"}, {"smiles": "C=CC(=O)N1CC2(CC(n3nc(N4CC[C@@H](CN5CCO[C@@H](C(N)=O)C5)CC4(C)C)c(-c4c(Cl)c(Cl)cc5[nH]ncc45)c3C)C2)C1", "note": "(single isomer, unassigned) [Example 271b]", "IC50": 0.014}, {"smiles": "C=CC(=O)N1CC2(CC(n3nc(N4CC[C@@H](CN5CC6(CCCN6C6COC6)C5)CC4(C)C)c(-c4c(Cl)c(Cl)cc5[nH]ncc45)c3C)C2)C1", "note": "(single isomer, unassigned) [Example 272a]", "IC50": "> 5"}, {"smiles": "C=CC(=O)N1CC2(CC(n3nc(N4CC[C@@H](CN5CC6(CCCN6C6COC6)C5)CC4(C)C)c(-c4c(Cl)c(Cl)cc5[nH]ncc45)c3C)C2)C1", "note": "(single isomer, unassigned) [Example 272b]", "IC50": 0.008}, {"smiles": "C=CC(=O)N1CC2(CC(n3nc(N4CC[C@@H](CN5CC(O)C(OC)C5)CC4(C)C)c(-c4c(Cl)c(Cl)cc5[nH]ncc45)c3C)C2)C1", "note": "(single isomer, unassigned) [Example 273a, 1-(6-(4-(5,6-dichloro-1H-indazol-4-yl)-3-((R)-4-(((3S*,4S*)-3-hydroxy-4-methoxypyrrolidin-1-yl)methyl)-2,2-dimethylpiperidin-1-yl)-5-methyl-1H-pyrazol-1-yl)-2-azaspiro[3.3]heptan-2-yl)prop-2-en-1-one]", "IC50": 1.1}, {"smiles": "C=CC(=O)N1CC2(CC(n3nc(N4CC[C@@H](CN5CC(O)C(OC)C5)CC4(C)C)c(-c4c(Cl)c(Cl)cc5[nH]ncc45)c3C)C2)C1", "note": "(single isomer, unassigned) [Example 273b, 1-(6-(4-(5,6-dichloro-1H-indazol-4-yl)-3-((R)-4-(((3S*,4S*)-3-hydroxy-4-methoxypyrrolidin-1-yl)methyl)-2,2-dimethylpiperidin-1-yl)-5-methyl-1H-pyrazol-1-yl)-2-azaspiro[3.3]heptan-2-yl)prop-2-en-1-one]", "IC50": 0.01}, {"smiles": "C=CC(=O)N1CC2(CC(n3nc(N4CC[C@@H](CN5CC(O)C(OC)C5)CC4(C)C)c(-c4c(Cl)c(Cl)cc5[nH]ncc45)c3C)C2)C1", "note": "(single isomer, unassigned) [Example 274a, 1-(6-(4-(5,6-dichloro-1H-indazol-4-yl)-3-((R)-4-(((3S*,4S*)-3-hydroxy-4-methoxypyrrolidin-1-yl)methyl)-2,2-dimethylpiperidin-1-yl)-5-methyl-1H-pyrazol-1-yl)-2-azaspiro[3.3]heptan-2-yl)prop-2-en-1-one]", "IC50": 0.795}]}]}
